The values that follow are results of earlier work, collected in patent publication US20080038403A1, “WEIGHT MANAGEMENT SYSTEM FOR OBESE ANIMALS” (MARS INCORPORATED, priority 2002, published 2008).

The conditions of data set [1]: dietary consumption.
For data set [2] the following is noted: dietary consumption. The source holds these as a separate data set.

Take 1,3-diacylglycerol: in data set [1], the body weight entry is “decreases” and the regional fat deposition entry is given as “decreases”. For the same substance, in data set [2], the serum cholesterol levels result is “lowers” and the serum triglyceride levels result is “lowers”.
